Data as given in patent publication US9829499B2, “Method and related systems for use with a fluidics device” (SciKon Innovation, Inc., priority 2015, dated 2017).
Like-named read-outs stand apart in the source and are kept apart here.

Experiments:
[1] = system: HepG2 cells
Experimental: (§1) To compare the effects of flow on response of HepG2 cells to Tamoxifen, cells were treated in the wells of the fluidics device where the drug was applied either to the source well at two different rates (2× and 3×), or was applied directly to individual wells in the absence of flow (static). For each condition, HepG2 cells were seeded into the individual wells of the fluidics device at a density of 30,000 cells per well in 50 uL media. This density corresponded to approximately 60% confluence. […] HepG2 cells in a fluidics device were treated with increasing concentrations of Tamoxifen over time. 150 uM of Tamoxifen was infused into the source well of the fluidics device either 2 times per day (2×) or three times per day (3×). Two acellular rows were infused with 1 uM Fluorscein to enable calculation of absolute concentration at any given time. The reagent CellTox™ Green was used to monitor cellular toxicity. Area under the curve values for each timepoint were obtained and plotted against effect expressed as a % maximum of (treated/control). Data was pooled together to obtain a single plot. EC50 values were calculated by a Sigmoid EMax model in PKSolver.
(§2) For the 2× and 3× experiment, to utilize Fluorescein as a standard for concentration, rows A and B remained acellular. After acclimating one day, media was changed to media containing a 1:2000 dilution of CellTox™ Green using volume of 100 uL per well. 400 uL of CellTox™ Green containing media was also added to the source well. Fluidic connections were allowed to form and stabilize for 30 minutes at 37° C. in a humidified incubator. Once fluid connections in each row was confirmed, 200 uL of media containing CellTox™ Green with either 150 uM Tamoxifen in 0.1% DMSO or 0.1% DMSO alone was added to the source well. To rows A&B, 200 uL of 1 uM Fluorescein in 0.1% DMSO was added to the source well. For all conditions, fluorescence was monitored using a Tecan Infinite Pro M1000 multimode plate reader optimized for Z-heights focal plane. For the 2× and 3× plates, media flow was maintained by syphoning 100 uL from well 11 and applying 100 uL fresh dosing solution to the source well at cadence corresponding to twice pre day (2×) or three times per day (3×).
(§3) For static fluid conditions, after seeding, cells acclimated for one day and then media was changed to 50 uL of media containing the noted concentration of Tamoxifen in 0.1% DMSO or 0.1% DMSO alone. Incubation proceeded for 24 hours where analysis of fluorescence determined the degree of cell death in each well. Nine replicates of each concentration were averaged.
(§4) For determining the concentration at any given time in the 2× and 3× flow plates, the RFU values obtained from the a-cellular Fluorescein control rows were averaged for each column and an actual Fluorescein concentration was determined using the Fluorescein Standard curve (see FIG. 33). The starting concentration of Fluorescein was 1 uM and the starting concentration of Tamoxifen was 150 uM therefore, the amount of fluorescein in each well was multiplied by 150 to obtain the corresponding concentration of Tamoxifen. The area under the curve (AUC) for each timepoint was obtained by multiplying the concentration value by the time in hours since the last time point using the AUCt function in PKSolver. For static conditions, the concentration was constant for the entire treatment time, therefore to obtain AUC the concentration was multiplied by 24 hours. […]

[2] = system: cultured cells; assay: Viable cells by CellTiter-Glo, static plates versus fluidics device cultured cells treated over 7 and 9 days; type: cell-based
Source text: Referring to FIG. 46, a comparison of static plates and fluidics device 100 cultured cells treated with acetaminophen (APAP) over 7 and 9 days is depicted. CellTiter-Glo was used to measure viable cells. Data is normalized to vehicle (DMSO) control.

[3] = system: HepG2 cells; assay: Cytotoxicity of HepG2 cells with CellTox Green, fluidics device (flow) versus static culture, EC50 based on AUC exposure
Experimental: as §1, §2, §3, §4

CC(=O)Nc1ccc(O)cc1 [APAP, Acetaminophen]
Observed EC-50 in downstream wells versus expected when using standard static culture methods [1]: different from expected
what the observed EC50 suggests (effect of metabolism on cytotoxicity) [1]: bio-activation of a toxic intermediate
toxicity (viable cells, normalized to vehicle control) ([2]; fluidics device, Day 7): downstream cell death effect
toxicity (viable cells, normalized to vehicle control) ([2]; fluidics device, Day 9): More pronounced downstream metabolite effect
toxicity (viable cells, normalized to vehicle control) ([2]; static plate, Day 9, 2.5 mM): marginal effect
toxicity (viable cells, normalized to vehicle control) ([2]; static plate, Day 9, highest concentration 5 mM): obvious cell death
toxicity (viable cells, normalized to vehicle control) ([2]; static plates, Day 7): marginally detectable only at highest concentration

CC/C(=C(\c1ccccc1)c1ccc(OCCN(C)C)cc1)c1ccccc1 [Tamoxifen]
sensitivity of HepG2 cells in the flow system relative to static systems (comparison of AUC EC-50s) ([3]; CellTox Green, flow system less sensitive than static): approximately 4 fold
Observed EC-50 in downstream wells versus expected when using standard static culture methods ([3]; fluidics device downstream wells): different from expected
what the observed EC50 suggests (effect of metabolism on cytotoxicity) ([3]; fluidics device downstream wells versus static): deactivation
